Measurements reported in patent US20240317708A1, “INHIBITORS OF TRANSGLUTAMINASES” (ZEDIRA GMBH, priority 2021, published 2024).

Columns and labels:
[1] = molecular target: T1, recombinant human transglutaminase 2 (Homo sapiens, UniProt P21980); experiment: Transglutaminase assay (dansylcadaverine incorporation into dimethylcasein, DCC-assay); format: biochemical; conditions: recombinant human TG2 10 nM, dansylcadaverine/dimethylcasein, 37° C.
T1 construct: purchased Zedira T022
T1 sequence (P21980 1-687): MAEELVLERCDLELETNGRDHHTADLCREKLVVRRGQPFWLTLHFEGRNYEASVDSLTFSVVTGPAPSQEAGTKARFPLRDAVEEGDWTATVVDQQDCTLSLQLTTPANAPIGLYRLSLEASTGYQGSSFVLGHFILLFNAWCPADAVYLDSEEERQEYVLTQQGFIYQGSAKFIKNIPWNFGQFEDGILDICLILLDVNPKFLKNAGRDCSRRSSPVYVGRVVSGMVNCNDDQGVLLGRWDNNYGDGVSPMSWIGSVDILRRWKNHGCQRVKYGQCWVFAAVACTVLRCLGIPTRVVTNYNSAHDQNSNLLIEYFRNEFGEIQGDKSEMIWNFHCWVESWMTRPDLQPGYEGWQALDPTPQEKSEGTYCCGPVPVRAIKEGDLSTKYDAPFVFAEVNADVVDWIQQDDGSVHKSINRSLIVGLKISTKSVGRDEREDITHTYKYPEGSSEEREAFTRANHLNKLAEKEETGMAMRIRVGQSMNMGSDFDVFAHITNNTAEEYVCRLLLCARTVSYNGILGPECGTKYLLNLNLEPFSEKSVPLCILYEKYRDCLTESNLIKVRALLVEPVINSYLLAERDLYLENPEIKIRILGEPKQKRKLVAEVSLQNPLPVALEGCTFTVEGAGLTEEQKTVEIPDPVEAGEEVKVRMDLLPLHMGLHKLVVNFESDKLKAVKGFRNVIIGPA
Outline: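 IC50 derived from fluorescence slope between 20 and 30 min (λex 330 nm, λem 500 nm, 37 °C), expressed relative to a 2% DMSO control. Reaction: 10 nM recombinant human TG2, 4 μM dimethylcasein, 16.7 μM dansylcadaverine, 10 mM CaCl2 and glutathione, pH 8.0.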

[2] = Log D shake flask method (octanol / PBS pH 7.4, HPLC); format: physicochemical; conditions: octanol/phosphate-buffered saline (PBS); octanol / PBS pH 7.4, shake flask
Protocol: In order to classify the inventive compounds according to their lipophilicity, Log D values (distribution coefficient) were determined by means of the well-established shake flask method, measuring the partition of a compound between an octanol and phosphate-buffered saline (PBS, pH 7.4) by HPLC.

[3] = Caco-2 permeability assay (CacoReady kit); format: in vitro ADME; conditions: human
Outline: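 Caco-2 monolayer barrier, commercial ready-to-use kit, manufacturer protocol. Read-out: Papp.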

In the case of `COC(=O)/C=C/CC[C@H](NC(=O)c1cnnn1C)C(=O)Nc1cccn(CC(=O)N[C@@H]2C[C@@H]3CC[C@H]2C3)c1=O` [III-116, (S,E)-methyl 7-(1-(2-((1S,2R,4R)-bicyclo[2.2.1]heptan-2-ylamino)-2-oxoethyl)-2-oxo-1,2-dihydropyridin-3-ylamino)-6-(1-methyl-1H-1,2,3-triazole-5-carboxamido)-7-oxohept-2-enoate], the IC50 [1] is reported as < 25 nM, the logD [2] is reported as < 1 and the Papp [3] is reported as < 1 ×10⁻⁶ cm/s.
With `COC(=O)/C=C/CC[C@H](NC(=O)c1cncn1C)C(=O)Nc1cccn(CC(=O)N[C@@H]2C[C@H]3CC[C@@H]2C3)c1=O` [III-62, (S,E)-methyl 7-(1-(2-((1R,2R,4S)-bicyclo[2.2.1]heptan-2-ylamino)-2-oxoethyl)-2-oxo-1,2-dihydropyridin-3-ylamino)-6-(1-methyl-1H-imidazole-5-carboxamido)-7-oxohept-2-enoate] the IC50 [1] was < 25 nM, the logD [2] was 1 to 3 and the Papp [3] was < 1 ×10⁻⁶ cm/s.
In the case of `COC(=O)/C=C/CC[C@H](NC(=O)c1nn[nH]n1)C(=O)Nc1cccn(CC(=O)NC2C3CC4CC(C3)CC2C4)c1=O` (stereo partly drawn) [III-23, (S,E)-methyl 7-(1-(2-(2-adamantylamino)-2-oxoethyl)-2-oxo-1,2-dihydropyridin-3-ylamino)-7-oxo-6-(2H-tetrazole-5-carboxamido)hept-2-enoate], the IC50 [1] is reported as 25 to 250 nM, the logD [2] is reported as 1 to 3 and the Papp [3] is reported as 1 to 10 ×10⁻⁶ cm/s.
`COC(=O)/C=C/CC[C@H](NC(=O)c1cn(C)nn1)C(=O)Nc1cccn(CC(=O)NC2C3CC4CC(C3)CC2C4)c1=O` (stereo partly drawn) [III-103, (S,E)-methyl 7-(1-(2-(2-adamantylamino)-2-oxoethyl)-2-oxo-1,2-dihydropyridin-3-ylamino)-6-(1-methyl-1H-1,2,3-triazole-4-carboxamido)-7-oxohept-2-enoate] gave an IC50 [1] of 25 to 250 nM, a logD [2] of 1 to 3 and a Papp [3] of 1 to 10 ×10⁻⁶ cm/s.
With `CN(C)C(=O)/C=C/CC[C@H](NC(=O)c1cncn1C)C(=O)Nc1cccn(CC(=O)NC2C3CC4CC(C3)CC2C4)c1=O` (stereo partly drawn) [III-76, (S,E)-N^7-(1-(2-(2-adamantylamino)-2-oxoethyl)-2-oxo-1,2-dihydropyridin-3-yl)-N^1,N^1-dimethyl-6-(1-methyl-1H-imidazole-5-carboxamido)hept-2-enediamide] the IC50 [1] was 25 to 250 nM, the logD [2] was 1 to 3 and the Papp [3] was < 1 ×10⁻⁶ cm/s.
For `COC(=O)/C=C/CC[C@H](NC(=O)c1cc(Cl)c(Cl)s1)C(=O)Nc1cccn(CC(=O)NC2C3CC4CC(C3)CC2C4)c1=O` (stereo partly drawn) [III-20, (S,E)-methyl 6-(4,5-dichlorothiophene-2-carboxamido)-7-(1-(2-(2-adamantylamino)-2-oxoethyl)-2-oxo-1,2-dihydropyridin-3-ylamino)-7-oxohept-2-enoate], the IC50 [1] was < 25 nM, the logD [2] was 3 to 5 and the Papp [3] was 1 to 10 ×10⁻⁶ cm/s.
In the case of `COC(=O)/C=C/CC[C@H](NC(=O)c1oc2ccccc2c1C)C(=O)Nc1cccn(CC23CC4CC(CC(Br)(C4)C2)C3)c1=O` [III-81, (6S, E)-methyl 7-(1-((3-bromo-1-adamantyl)methyl)-2-oxo-1,2-dihydropyridin-3-ylamino)-6-(3-methylbenzofuran-2-carboxamido)-7-oxohept-2-enoate], the IC50 [1] is reported as 250 to 1500 nM, the logD [2] is reported as 3 to 5 and the Papp [3] is reported as 1 to 10 ×10⁻⁶ cm/s.
For `CC(C)NC(=O)/C=C/CC[C@H](NC(=O)c1c[nH]c2ccccc12)C(=O)Nc1cccn(CC(=O)NC23CC(C2)C3)c1=O` [III-140, (S,E)-N7-(1-(2-(bicyclo[1.1.1]pentan-1-ylamino)-2-oxoethyl)-2-oxo-1,2-dihydropyridin-3-yl)-6-(1H-indole-3-carboxamido)-N1-isopropylhept-2-enediamide], the IC50 [1] was 25 to 250 nM, the logD [2] was < 1 and the Papp [3] was 1 to 10 ×10⁻⁶ cm/s.
For `CCn1c(C(=O)N[C@@H](CC/C=C/C(=O)NC2CCCCC2)C(=O)Nc2cccn(CC(=O)NC34CC(C3)C4)c2=O)cc2ccccc21` [III-148, (S,E)-N7-(1-(2-(bicyclo[1.1.1]pentan-1-ylamino)-2-oxoethyl)-2-oxo-1,2-dihydropyridin-3-yl)-N1-cyclohexyl-6-(1-ethyl-1H-indole-2-carboxamido)hept-2-enediamide], the IC50 [1] was 25 to 250 nM, the logD [2] was 3 to 5 and the Papp [3] was 1 to 10 ×10⁻⁶ cm/s.
With `COC(=O)/C=C/CC[C@H](NC(=O)c1cc2c(Br)cccc2o1)C(=O)Nc1cccn(CC(=O)NC2C3CC4CC(C3)CC2C4)c1=O` (stereo partly drawn) [III-4, (S,E)-methyl 6-(4-bromobenzofuran-2-carboxamido)-7-(1-(2-(2-adamantylamino)-2-oxoethyl)-2-oxo-1,2-dihydropyridin-3-ylamino)-7-oxohept-2-enoate] the IC50 [1] was < 25 nM, the logD [2] was 3 to 5 and the Papp [3] was 1 to 10 ×10⁻⁶ cm/s.
With `COC(=O)/C=C/CC[C@H](NC(=O)c1cc(Cl)sc1Cl)C(=O)Nc1cccn(CC(=O)NC2C3CC4CC(C3)CC2C4)c1=O` (stereo partly drawn) [III-13, (S,E)-methyl 6-(2,5-dichlorothiophene-3-carboxamido)-7-(1-(2-(2-adamantylamino)-2-oxoethyl)-2-oxo-1,2-dihydropyridin-3-ylamino)-7-oxohept-2-enoate] the IC50 [1] was < 25 nM, the logD [2] was 3 to 5 and the Papp [3] was 1 to 10 ×10⁻⁶ cm/s.
In the case of `COC(=O)/C=C/CC[C@H](NC(=O)c1oc2ccccc2c1C)C(=O)Nc1cccn(CC(=O)NC23CC4CC(C2)CC(C(=O)OC)(C4)C3)c1=O` [III-54, (S,E)-methyl 7-(1-(2-(3-methyladamantane-3-carboxylate-1-amino)-2-oxoethyl)-2-oxo-1,2-dihydropyridin-3-ylamino)-6-(3-methylbenzofuran-2-carboxamido)-7-oxohept-2-enoate], the IC50 [1] is reported as 25 to 250 nM, the logD [2] is reported as 3 to 5 and the Papp [3] is reported as < 1 ×10⁻⁶ cm/s.
For `COC(=O)/C=C/CC[C@H](NC(=O)c1oc2ccccc2c1C)C(=O)Nc1cccn(CC(=O)NC2(C(=O)OC)C3CC4CC(C3)CC2C4)c1=O` (stereo partly drawn) [III-44, (S,E)-methyl 7-(1-(2-(2-methyladamantane-2-carboxylate-2-amino)-2-oxoethyl)-2-oxo-1,2-dihydropyridin-3-ylamino)-6-(3-methylbenzofuran-2-carboxamido)-7-oxohept-2-enoate], the IC50 [1] was 25 to 250 nM, the logD [2] was 3 to 5 and the Papp [3] was < 1 ×10⁻⁶ cm/s.
With `COC(=O)/C=C/CC[C@H](NC(=O)c1oc2ccccc2c1C)C(=O)Nc1cccn(CC2C3CC4CC(C3)CC2C4)c1=O` (stereo partly drawn) [III-82, (S,E)-methyl 7-(1-(2-adamantylmethyl)-2-oxo-1,2-dihydropyridin-3-ylamino)-6-(3-methylbenzofuran-2-carboxamido)-7-oxohept-2-enoate] the IC50 [1] was 250 to 1500 nM, the logD [2] was 3 to 5 and the Papp [3] was 1 to 10 ×10⁻⁶ cm/s.
Compound `COC(=O)/C=C/CC[C@H](NC(=O)c1cnc(C(C)C)o1)C(=O)Nc1cccn(CC(=O)NC23CCC(C2)C3)c1=O` [III-134, (S,E)-methyl 7-(1-(2-(bicyclo[2.1.1]hexan-1-ylamino)-2-oxoethyl)-2-oxo-1,2-dihydropyridin-3-ylamino)-6-(2-isopropyloxazole-5-carboxamido)-7-oxohept-2-enoate] has an IC50 [1] of 25 to 250 nM, a logD [2] of 1 to 3 and a Papp [3] of 1 to 10 ×10⁻⁶ cm/s.
With `COC(=O)/C=C/CC[C@H](NC(=O)c1oc2ccccc2c1C)C(=O)Nc1cccn(CC23CC4CC(CC(O)(C4)C2)C3)c1=O` [III-80, (6S,E)-methyl 7-(1-((3-hydroxy-1-adamantyl)methyl)-2-oxo-1,2-dihydropyridin-3-ylamino)-6-(3-methylbenzofuran-2-carboxamido)-7-oxohept-2-enoate] the IC50 [1] was 250 to 1500 nM, the logD [2] was 1 to 3 and the Papp [3] was < 1 ×10⁻⁶ cm/s.
